From article PMC4766415 (Nature Communications, 2016)

Test system: T1, human V30M-TTR
T1 construct: plasma samples from the transgenic mice expressing human V30M-TTR; from tissue; host or cells: plasma of transgenic mice expressing human V30M-TTR
Assay: T4 competition in plasma of transgenic mice after oral tolcapone
Assay type: in vivo
Conditions: 30 to 300 mg kg^−1 by gavage
Procedure: The animals were killed 1 h after the last dose. Plasma samples were obtained before dosing (t=0) and at the end of the experiment. T4 competition assays by native gel electrophoresis were performed in plasma following the same protocol as in Fig. 4a. At basal conditions (t=0), around 40% of the total radioactivity was associated with the TTR band in samples from all animals.
Plasma samples were treated with radiolabelled T4 and subjected to native PAGE. The fraction of radiolabelled T4 bound to the band corresponding to TTR is represented. Error bars indicate s.e.m. (n=4). (b) TTR tetramer stability in the plasma of control and tolcapone-treated transgenic mice was assessed by IEF under semi-denaturing conditions. The ratio between the TTR tetramers and the rest of the TTR species in the IEF gels was calculated for controls and tolcapone-treated mice. The data are expressed as fold increase of the ratio TTR tetramer/total TTR with respect to samples from vehicle-treated animals. ***P<0.001 and **P<0.01 (Student's t-test). Error bars indicate s.e.m. (n=3). […] TTR stabilization was quantified by immunoturbidity after urea denaturation with subsequent crosslinking with glutaraldehyde as detailed in the experimental section. […] White bars correspond to plasma samples crosslinked 0 h after urea addition, black bars correspond to plasma samples crosslinked after 48 h of urea denaturation. […]

## Cc1ccc(C(=O)c2cc(O)c(O)c([N+](=O)[O-])c2)cc1 [tolcapone]
  amount of T4 remaining bound to TTR at the end of treatment: decreased in a dose-dependent manner
